Laboratory results: patent US20060134197A1, “Method of reducing unpleasant taste and/or unpleasant odor” (priority 2002, published 2006)

Columns and labels:
[1] = Inhibiting the production of hydrogen sulfide from L-cysteine due to heat-decomposition; conditions: 2.5 g L-cysteine hydrochloride and 5 g saccharide in 50 ml; 80° C. for 15 minutes; 100 minus relative value, control defined as 100
Excerpt: Two and half grams of precisely weighted L-cysteine hydrochloride (special reagent grade) and on a dry solid basis 5 g of a precisely measured saccharide sample; i.e. hydrous crystalline α,α-trehalose (reagent grade, purity 99.0% or more, commercialized by Hayashibara Biochemical Laboratories, Inc., Okayama, Japan), α-maltosyl α,α-trehalose prepared in the following Example 5 (purity 98.1%), or a reagent grade maltotetraose (purity 97.0% or more, commercialized by Hayashibara Biochemical Laboratories, Inc., Okayama, Japan); were placed in a 50-ml volume measuring flask and dissolved in deionized water to give a final volume of 50 ml. As a control, 2.5 g of precisely measured L-cysteine hydrochloride (special reagent grade) was dissolved in deionized water to give a final volume of 50 ml. Five ml of each sample was place into a 20-ml volume vial, sealed with a butyl gum cap, and kept at 80° C. for 15 minutes in an incubator. Hydrogen sulfide contained in 10 ml of the resulting headspace gas was measured by “GASTECH No. 4 LT”, a hydrogen sulfide detector commercialized by GL Science Corporation, under an aspiration time of one minute. The resulting value of the production of hydrogen sulfide of each test sample was compared with the value of control defined as 100 to calculate the relative value of the production of hydrogen sulfide. And then, the relative rate of inhibiting the production of hydrogen sulfide was calculated by 100 minus the relative value.

[2] = Panel test of lowering iron taste and/or smell of aqueous bivalent iron ion solution; design: key to Effect on lowering iron taste and/or smell: “Not effective (symbol “−”)” meaning of that the test aqueous solution showed no difference in iron taste and/or smell from that the control aqueous solution; “Slightly effective (symbol “+”)”, the test aqueous solution showes weaker iron taste and/or smell than the control aqueous solution but the deference was not significant; “Effective (symbol “++”)”, the test aqueous solution showed a slight iron taste and/or smell but it was significantly weaker than that of the control aqueous solution; “Strongly effective (symbol “+++”)”, the test aqueous solution showed almost no iron taste and/or smell; conditions: for Effect on lowering iron taste and/or smell: 5 mg bivalent iron per 100 ml, 12 panels
Experimental: To confirm the effect of various saccharides on inhibiting taste and/or smell of bivalent iron ion, the following experiment was carried out. An aqueous solution containing bivalent iron ion was prepared by dissolving 0.05556 part by weight of ammonium ferric citrate (iron content of about 18%), and 0.1 part by weight of ascorbic acid in 100 parts by weight of deionized water. Test aqueous solutions containing 5 mg of bivalent iron per 100 ml of water and 0.5, 1.0, 1.5, 2.0 or 5.0% of saccharide selected from sucrose, maltose (hydrous crystalline maltose commercialized by Hayashibara Biochemical Laboratories, Inc., Okayama, Japan, purify 99.0% or more), α,α-trehalose (hydrous crystalline α,α-trehalose commercialized by Hayashibara Biochemical Laboratories, Inc., Okayama, Japan, purity 99.0% or more), α-glucosyl α,α-trehalose (hydrous crystalline α-glucosyl α,α-trehalose prepared in Experiment B-1 of Japanese Patent Publication (Kokai) No. 291,986/1995, purity 99.0% or more), and […] (powdery α-maltosyl α,α-trehalose prepared in Example 5 described following, purity 98.1%) were prepared by admixing the above aqueous solution containing bivalent iron with an equal volume of a pre-prepared aqueous solution containing any one of the above saccharides at a concentration of 1.0, 2.0, 3.0, 4.0 or 10.0%, on a dry solid basis. As a control, an aqueous solution was prepared by admixing the aqueous solution containing bivalent iron ion with an equal volume of warter instead of the aqueous saccharide solution.
The effect on lowering iron taste and/or smell, namely unpleasant taste and/or smell of iron ion existing in a test aqueous solution at a concentration of 5 mg per 100 ml was judged by a panel test using 12 panels. […] In the judgement for each test aqueous solution, ten or more of 12 panels answered the same judgement.

[3] = Water solubility and hygroscopicity of the agents; format: physicochemical

Structure (SMILES)	Relative rate of inhibiting the production of hydrogen sulfide [1]	Effect on lowering iron taste and/or smell ([2]; saccharide 0.5%)	Effect on lowering iron taste and/or smell ([2]; saccharide 1.0%)	Effect on lowering iron taste and/or smell ([2]; saccharide 1.5%)	Effect on lowering iron taste and/or smell ([2]; saccharide 2.0%)	Effect on lowering iron taste and/or smell ([2]; saccharide 5.0%)	Hygroscopicity [3]	Solubility in water [3]	Concentration effective on lowering unpleasant taste and/or smell of aqueous iron ion solution ([2]; to the total weight of the aqueous solution, dry solid basis) [%]
OC[C@H]1O[C@H](O[C@H]2[C@H](O)[C@@H](O)[C@@H](O[C@H]3[C@H](O)[C@@H](O)[C@@H](O[C@H]4[C@H](O)[C@@H](O)C(O)O[C@@H]4CO)O[C@@H]3CO)O[C@@H]2CO)[C@H](O)[C@@H](O)[C@@H]1O (some centres unmarked) [Maltotetraose, maltotetraose]	12								
OC[C@H]1O[C@H](O[C@H]2O[C@H](CO)[C@@H](O[C@H]3O[C@H](CO)[C@@H](O[C@H]4O[C@H](CO)[C@@H](O)[C@H](O)[C@H]4O)[C@H](O)[C@H]3O)[C@H](O)[C@H]2O)[C@H](O)[C@@H](O)[C@@H]1O [α-Maltosyl α,α-trehalose, α-maltosyl α,α-trehalose]	36	−	+	++	++	+++	low hygroscopicity	satisfactory solubility in water	
OC[C@H]1O[C@H](O[C@H]2[C@H](O)[C@@H](O)C(O)O[C@@H]2CO)[C@H](O)[C@@H](O)[C@@H]1O (mixture of isomers) [Maltose, maltose]		−	−	−	+	+			≥ 2
OC[C@H]1O[C@H](O[C@H]2O[C@H](CO)[C@@H](O[C@H]3O[C@H](CO)[C@@H](O)[C@H](O)[C@H]3O)[C@H](O)[C@H]2O)[C@H](O)[C@@H](O)[C@@H]1O [α-Glucosyl α,α-trehalose, α-glucosyl α,α-trehalose]		−	+	++	++	+++			
